SMILES strings stand for the structures.

The nature of this data set: RP, Thermo Scientific Acclaim RSLC 120 C18, 100 × 2.1 mm, 2.2 µm, 30 °C, 0.2 mL/min, estimated dead time 1.1 min; A: 90% water + 10% methanol + 0.01% formic acid + 5 mM ammonium formate, pH 3.61; B: methanol + 0.01% formic acid + 5 mM ammonium formate, pH 3.61; gradient (min/%B) 0/1 1/1 2/39 13/99.9 15/99.9 15.1/1 20.1/1. The note with it: stereoisomer not certain.
`Cc1nnc2n1-c1ccc(Br)cc1C(c1ccccn1)=NC2` [Pyrazolam]: the LC retention time is 6.27 min.

For the compound `CCOC(=O)c1cn2nc(OP(=S)(OCC)OCC)cc2nc1C` [Pyrazophos], the LC retention time was 11.4 min.

On to `Cc1nn(C)c(OCC(=O)c2ccccc2)c1C(=O)c1ccc(Cl)cc1Cl` [Pyrazoxyfen], for which the LC retention time is 10.9 min.

For `C=CC=CCC1=C(C)C(OC(=O)C2C(C=C(C)C(=O)OC)C2(C)C)CC1=O` (centres undefined) [Pyrethrin II], the LC retention time was 11.7 min.

As to `C=CC=CCC1=C(C)C(OC(=O)C2C(C=C(C)C)C2(C)C)CC1=O` (centres undefined) [Pyrethrin I], the LC retention time was 12.9 min.

Consider `CC=CCC1=C(C)C(OC(=O)C2C(C=C(C)C(=O)OC)C2(C)C)CC1=O` (centres undefined) [Pyrethrins: Cinerin II], for which the LC retention time was 11.6 min.

In the case of `CC=CCC1=C(C)C(OC(=O)C2C(C=C(C)C)C2(C)C)CC1=O` (centres undefined) [Pyrethrins: Cinerin I], the LC retention time is 12.9 min.

For `CCC=CCC1=C(C)C(OC(=O)C2C(C=C(C)C(=O)OC)C2(C)C)CC1=O` (centres undefined) [Pyrethrins: Jasmolin II], the LC retention time is 12.2 min.

Regarding `CCC=CCC1=C(C)C(OC(=O)C2C(C=C(C)C)C2(C)C)CC1=O` (centres undefined) [Pyrethrins: Jasmolin I], the LC retention time was 13.3 min.

Regarding `CN(C)CCN(Cc1ccccc1)c1ccccn1` [Pyribenzamine (Tripelenamine. Azaron)], the LC retention time is 5.86 min.

On to `COc1cccc(N(C)C(=S)Oc2cccc(C(C)(C)C)c2)n1` [Pyributicarb], for which the LC retention time was 12.5 min.

In the case of `CC(C)(C)c1ccc(CSc2cnn(C(C)(C)C)c(=O)c2Cl)cc1` [Pyridaben], the LC retention time is 13.4 min.

Regarding `CCOP(=S)(OCC)Oc1ccc(=O)n(-c2ccccc2)n1` [Pyridaphenthion], the LC retention time is 9.79 min.

Regarding `CCCCCCCCSC(=O)Oc1cc(Cl)nnc1-c1ccccc1` [Pyridate], the LC retention time was 13.8 min.

For the compound `Cc1ncc(CO)c(CO)c1O` [Pyridoxine], the LC retention time was 2.18 min.

For the compound `CON=C(Cc1cccnc1)c1ccc(Cl)cc1Cl` [Pyrifenox], the LC retention time was 10.1 min.

In the case of `CCc1nc(N)nc(N)c1-c1ccc(Cl)cc1` [Pyrimethamine], the LC retention time is 5.92 min.

Turning to `Cc1cc(C)nc(Nc2ccccc2)n1` [Pyrimethanil], the LC retention time was 9.44 min.

Consider `CCOCCc1ccc(OCCNc2ncnc(CC)c2Cl)c(C)c1C` [Pyrimidifen], for which the LC retention time is 12.5 min.

Consider `Cc1cc(=O)[nH]c(C(C)C)n1` [Pyrimidinol], for which the LC retention time is 4.49 min.

As for `CC(COc1ccc(Oc2ccccc2)cc1)Oc1ccccn1` (centres undefined) [Pyriproxyfen], the LC retention time is 12.6 min.

Take `Cc1ncc(CSSCc2cnc(C)c(O)c2CO)c(CO)c1O` [Pyritinol]: the LC retention time is 5.54 min.

For `CCCC(C(=O)c1ccc(C)cc1)N1CCCC1` (centres undefined) [Pyrovalerone], the LC retention time was 6.03 min.

Consider `OCCOCCN1CCN(C2=Nc3ccc(O)cc3Sc3ccccc32)CC1` [Quetiapine-Hydroxy], for which the LC retention time is 4.99 min.

Turning to `OCCOCCN1CCN(C2=Nc3ccccc3Sc3ccccc32)CC1` [Quetiapine], the LC retention time is 7.26 min.

Turning to `CCCN1CC(NS(=O)(=O)N(CC)CC)CC2Cc3c(O)cccc3CC21` (centres undefined) [Quinagolide], the LC retention time was 5.24 min.

Take `CCOP(=S)(OCC)Oc1cnc2ccccc2n1` [Quinalphos]: the LC retention time was 10.8 min.

As to `CCOC(=O)C(CCc1ccccc1)NC(C)C(=O)N1Cc2ccccc2CC1C(=O)O` (centres undefined) [Quinapril], the LC retention time is 9.03 min.

For `O=C(O)c1c(Cl)ccc2cc(Cl)cnc12` [Quinclorac], the LC retention time is 4.9 min.

As to `Cc1cnc2c(C(=O)O)c(Cl)ccc2c1` [Quinmerac], the LC retention time was 4.75 min.

On to `Fc1ccc(Oc2ccnc3cc(Cl)cc(Cl)c23)cc1` [Quinoxyphen], for which the LC retention time was 12.8 min.

Regarding `CCOC(=O)C(C)Oc1ccc(Oc2cnc3cc(Cl)ccc3n2)cc1` (centres undefined) [Quizalofop-ethyl], the LC retention time was 12.1 min.

For the compound `CC(Oc1ccc(Oc2cnc3cc(Cl)ccc3n2)cc1)C(=O)O` (centres undefined) [Quizalofop], the LC retention time was 9.62 min.

`COc1ccc(C(=O)c2cn(CCCCC(=O)O)c3ccccc23)cc1` [RCS-4-M-5-COOH-Pentyl]: the LC retention time is 8.81 min.

For `COc1ccc(C(=O)c2cn(CCCCCO)c3ccccc23)cc1` [RCS-4-M-5-OH-Pentyl], the LC retention time is 9.18 min.

On to `CCCCCn1cc(C(=O)c2ccccc2OC)c2ccccc21` [RCS-4-ortho], for which the LC retention time is 11.2 min.

Turning to `CCCCCn1cc(C(=O)c2ccc(OC)cc2)c2ccccc21` [RCS-4], the LC retention time is 11.8 min.

Regarding `COc1ccccc1CC(=O)c1cn(CCC2CCCCC2)c2ccccc12` [RCS-8], the LC retention time is 13 min.

Take `Cc1cc(C)n(-c2nc3ccccc3[nH]2)n1` [Rabenzazole]: the LC retention time was 8.27 min.

Turning to `COCCCOc1ccnc(CS(=O)c2nc3ccccc3[nH]2)c1C` (centres undefined) [Rabeprazole], the LC retention time is 7.52 min.

Consider `CC(CCc1ccc(O)cc1)NCC(O)c1ccc(O)cc1` (centres undefined) [Ractopamine], for which the LC retention time was 4.39 min.

On to `Cc1c(NC(C)C)c(=O)n(-c2ccccc2)n1C` [Ramifenazone], for which the LC retention time is 5.72 min.

In the case of `CCOC(=O)C(CCc1ccccc1)NC(C)C(=O)N1C(C(=O)O)CC2CCCC21` (centres undefined) [Ramipril], the LC retention time was 8.56 min.

For `CNC(=C[N+](=O)[O-])NCCSCc1ccc(C[N+](C)(C)[O-])o1` [Ranitidine-N-oxide], the LC retention time was 3.43 min.

Consider `CNC(=C[N+](=O)[O-])NCCSCc1ccc(CN(C)C)o1` [Ranitidine], for which the LC retention time was 3.14 min.

Consider `COC(=O)C1=COC(C)C2CN3CCc4c([nH]c5ccccc45)C3CC12` (centres undefined) [Raubasine], for which the LC retention time was 6.66 min.

As for `CCOc1ccccc1OC(c1ccccc1)C1CNCCO1` (centres undefined) [Reboxetine], the LC retention time was 7.28 min.

`CCN1CCCC1CNC(=O)c1c(OC)ccc(Br)c1OC` (centres undefined) [Remoxipride]: the LC retention time is 5.06 min.

On to `CCOc1cc(CC(=O)NC(CC(C)C)c2ccccc2N2CCCCC2)ccc1C(=O)O` (centres undefined) [Repaglinide], for which the LC retention time was 11.9 min.

Regarding `Cn1c(=O)c2c(ncn2CCCNCC(O)c2cc(O)cc(O)c2)n(C)c1=O` (centres undefined) [Reproterol], the LC retention time was 3.56 min.

Regarding `COC(=O)C1C2CC3c4[nH]c5cc(OC)ccc5c4CCN3CC2CC(OC(=O)c2cc(OC)c(OC)c(OC)c2)C1OC` (centres undefined) [Reserpine], the LC retention time is 8.47 min.

On to `Oc1ccc(C=Cc2cc(O)cc(O)c2)cc1` [Resveratrol], for which the LC retention time is 5.93 min.

For the compound `CC=C1CC(C)C(O)(CO)C(=O)OCC2=CC[N+]3([O-])CCC(OC1=O)C23` (centres undefined) [Retrorsine-N-oxide], the LC retention time was 4.33 min.

As for `CC=C1CC(C)C(O)(CO)C(=O)OCC2=CCN3CCC(OC1=O)C23` (centres undefined) [Retrorsine], the LC retention time was 4.01 min.

For `NC(=O)c1ncn(C2OC(CO)C(O)C2O)n1` (centres undefined) [Ribavirin], the LC retention time is 1.36 min.

For `C1COC(NC(C2CC2)C2CC2)=N1` [Rilmenidine], the LC retention time was 4.4 min.

Turning to `Nc1nc2ccc(OC(F)(F)F)cc2s1` [Riluzole], the LC retention time was 9.12 min.

In the case of `Cc1c(C(=O)NN2CCCCC2)nn(-c2ccc(Cl)cc2Cl)c1-c1ccc(Cl)cc1` [Rimonabant], the LC retention time is 12.8 min.

For `CCS(=O)(=O)c1cccnc1S(=O)(=O)NC(=O)Nc1nc(OC)cc(OC)n1` [Rimsulfuron], the LC retention time is 7.09 min.

Consider `Cc1nc2n(c(=O)c1CCN1CCC(c3noc4cc(F)ccc34)CC1)CCCC2O` (centres undefined) [Risperidone-9-OH (Paliperidone)], for which the LC retention time is 5.33 min.

With `Cc1nc2n(c(=O)c1CCN1CCC(c3noc4cc(F)ccc34)CC1)CCCC2` [Risperidone], the LC retention time is 5.88 min.

As for `O=C(O)C(c1ccccc1)C1CCCCN1` (centres undefined) [Ritalinic acid], the LC retention time is 4.61 min.

As for `CC(NCCc1ccc(O)cc1)C(O)c1ccc(O)cc1` (centres undefined) [Ritodrine], the LC retention time was 3.79 min.

Consider `CC(C)c1nc(CN(C)C(=O)NC(C(=O)NC(Cc2ccccc2)CC(O)C(Cc2ccccc2)NC(=O)OCc2cncs2)C(C)C)cs1` (centres undefined) [Ritonavir], for which the LC retention time was 11.1 min.

Consider `O=C(NCC1CN(c2ccc(N3CCOCC3=O)cc2)C(=O)O1)c1ccc(Cl)s1` (centres undefined) [Rivaroxaban], for which the LC retention time is 7.03 min.

For `CN(C)CCc1c[nH]c2ccc(Cn3cncn3)cc12` [Rizatriptan], the LC retention time is 3.49 min.

Consider `NC(=NN=Cc1ccc(Cl)cc1)NN=Cc1ccc(Cl)cc1` [Robenidine], for which the LC retention time is 10.4 min.

As to `Cn1c([N+](=O)[O-])cnc1COC(N)=O` [Ronidazole], the LC retention time is 3.55 min.

On to `CCCN(CCC)CCc1cccc2c1CC(=O)N2` [Ropinirole], for which the LC retention time was 3.98 min.

Consider `CCCN1CCCCC1C(=O)Nc1c(C)cccc1C` (centres undefined) [Ropivacaine], for which the LC retention time was 5.39 min.

Turning to `CN(CCOc1ccc(CC2SC(=O)NC2=O)cc1)c1ccccn1` (centres undefined) [Rosiglitazone], the LC retention time is 6.98 min.

`CC(C)c1nc(N(C)S(C)(=O)=O)nc(-c2ccc(F)cc2)c1C=CC(O)CC(O)CC(=O)O` (centres undefined) [Rosuvastatin]: the LC retention time was 8.2 min.

For the compound `C=C(C)C1Cc2c(ccc3c2OC2COc4cc(OC)c(OC)cc4C2C3=O)O1` (centres undefined) [Rotenone], the LC retention time was 10.5 min.

With `CCC1OC(=O)C(C)C(OC2CC(C)(OC)C(O)C(C)O2)C(C)C(OC2OC(C)CC(N(C)C)C2O)C(C)(O)CC(C)C(=NOCOCCOC)C(C)C(O)C1(C)O` (centres undefined) [Roxithromycin], the LC retention time was 9.23 min.

(Values after the RepoRT retention time repository (doi:10.1021/acs.analchem.2c02893).)
